The source of these data is article PMC10714399, “Open Source Antibiotics: Simple Diarylimidazoles Are Potent against Methicillin-Resistant Staphylococcus aureus” (ACS Infectious Diseases, 2023).

The series is described as follows: LogD7.4 (Chrom Log D). Type of series: physicochemical. Conditions: chromatographic system (Chrom Log D); pH 7.4, NEU; read-out: LogD 7.4 (NEU).

`c1ccc(-c2nc3n(c2-c2ccc4occc4c2)CCC3)nc1` [compound 821]: the chromatographic logD was 2.7.
